Experimental data as given in ChEMBL document CHEMBL4411304, “CDK8 as a therapeutic target for cancers and recent developments in discovery of CDK8 inhibitors” (Eur J Med Chem, 2019).
Blank lines part the entries; values can stand above or below the compound they belong to.

Assays:
[1] = target: T1, Serine/threonine-protein kinase haspin (Homo sapiens) (UniProt Q8TF76); experiment: Inhibition of wild-type human partial length HASPIN (I452 to K798 residues) expressed in mammalian expression system at 300 nM by Kinomescan method relative to control
T1 sequence (whole entry): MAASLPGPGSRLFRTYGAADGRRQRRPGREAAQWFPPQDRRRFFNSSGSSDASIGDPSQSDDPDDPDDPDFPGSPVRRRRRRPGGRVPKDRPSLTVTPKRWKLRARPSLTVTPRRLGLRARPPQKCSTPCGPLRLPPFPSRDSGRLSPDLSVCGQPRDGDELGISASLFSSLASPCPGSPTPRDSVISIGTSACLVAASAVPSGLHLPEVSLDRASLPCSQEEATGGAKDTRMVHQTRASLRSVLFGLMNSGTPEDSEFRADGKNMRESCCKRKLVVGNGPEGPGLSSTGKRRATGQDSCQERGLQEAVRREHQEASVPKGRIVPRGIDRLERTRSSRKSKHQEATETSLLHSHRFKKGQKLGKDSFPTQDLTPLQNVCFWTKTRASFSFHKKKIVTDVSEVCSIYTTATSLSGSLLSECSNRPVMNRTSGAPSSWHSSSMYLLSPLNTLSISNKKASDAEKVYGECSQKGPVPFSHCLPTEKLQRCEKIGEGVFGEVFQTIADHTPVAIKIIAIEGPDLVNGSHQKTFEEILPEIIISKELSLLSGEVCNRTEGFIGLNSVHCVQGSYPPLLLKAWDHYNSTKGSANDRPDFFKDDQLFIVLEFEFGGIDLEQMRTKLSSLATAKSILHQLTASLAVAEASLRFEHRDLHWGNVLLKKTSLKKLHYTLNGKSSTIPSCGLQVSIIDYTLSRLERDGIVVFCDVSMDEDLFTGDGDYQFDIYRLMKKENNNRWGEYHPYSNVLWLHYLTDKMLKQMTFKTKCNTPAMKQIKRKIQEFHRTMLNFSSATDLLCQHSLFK

[2] = target: T2, Cyclin-dependent kinase 19 (Homo sapiens, UniProt Q9BWU1); experiment: Inhibition of wild-type partial length human CDK11 (M1 to N360 residues) expressed in bacterial expression system at 300 nM by Kinomescan assay
[3] = Selectivity index, ratio of IC50 for NHDF cells to IC50 for VEGF-stimulated HUVEC; design: species or system Homo sapiens
[4] = target: T2, Cyclin-dependent kinase 19; experiment: Binding affinity to wild-type partial length human CDK11 (M1 to N360 residues) expressed in bacterial expression system by Kinomescan assay
[5] = target: Rho-associated protein kinase 1 (Homo sapiens, UniProt Q13464); experiment: Binding affinity to wild-type partial length human ROCK1 (M1 to R415 residues) expressed in mammalian expression system by Kinomescan assay
[6] = target: Rho-associated protein kinase 2 (Homo sapiens, UniProt O75116); experiment: Binding affinity to wild-type partial length human ROCK2 (M1 to T431 residues) expressed in mammalian expression system by Kinomescan assay
[7] = target: cAMP-dependent protein kinase catalytic subunit alpha (Homo sapiens, UniProt P17612); experiment: Binding affinity to wild-type partial length human PKACalpha (G10 to F351 residues) expressed in bacterial expression system by Kinomescan assay
NHDF = experiment: Cytotoxicity against NHDF cells; format: cell-based; conditions: Homo sapiens
[8] = target: Cyclin-dependent kinase 8 (Homo sapiens, UniProt P49336); experiment: Binding affinity to wild-type partial length human CDK8 (M1 to T360 residues) expressed in bacterial expression system by Kinomescan assay
HUVEC = experiment: Antiproliferative activity against VEGF-stimulated HUVEC; format: functional, cell-based; conditions: Homo sapiens
COLO 205 = experiment: Growth inhibition of CDK8 over-expressing human COLO205 cells by MTT assay; format: functional
HCT-116 = experiment: Growth inhibition of CDK8 over-expressing human HCT116 cells by MTT assay; format: functional
CDK8/Cyclin C = CDK8/Cyclin C (Homo sapiens, UniProt P49336); experiment: Inhibition of recombinant human full-length GST/His-fused CDK8/CycC expressed in Sf9 insect cells using RBER-IRStide as substrate after 1 hr in presence of [gamma33P-ATP] by microbeta scintillation counting method
HT-29 = experiment: Growth inhibition of CDK8 over-expressing human HT-29 cells by MTT assay; format: functional
[9] = target: Cyclin-C/Cyclin-dependent kinase 19 (Homo sapiens, UniProt Q9BWU1); experiment: Inhibition of recombinant human GST/His-tagged CDK11 (1 to 502 residues)/cyclinC (1 to 283 residues) catalytic domain expressed in insect cells by Lantha screen eu binding assay
Sequence of Cyclin-C/Cyclin-dependent kinase 19 (Q9BWU1 whole entry, the tested form may be a part): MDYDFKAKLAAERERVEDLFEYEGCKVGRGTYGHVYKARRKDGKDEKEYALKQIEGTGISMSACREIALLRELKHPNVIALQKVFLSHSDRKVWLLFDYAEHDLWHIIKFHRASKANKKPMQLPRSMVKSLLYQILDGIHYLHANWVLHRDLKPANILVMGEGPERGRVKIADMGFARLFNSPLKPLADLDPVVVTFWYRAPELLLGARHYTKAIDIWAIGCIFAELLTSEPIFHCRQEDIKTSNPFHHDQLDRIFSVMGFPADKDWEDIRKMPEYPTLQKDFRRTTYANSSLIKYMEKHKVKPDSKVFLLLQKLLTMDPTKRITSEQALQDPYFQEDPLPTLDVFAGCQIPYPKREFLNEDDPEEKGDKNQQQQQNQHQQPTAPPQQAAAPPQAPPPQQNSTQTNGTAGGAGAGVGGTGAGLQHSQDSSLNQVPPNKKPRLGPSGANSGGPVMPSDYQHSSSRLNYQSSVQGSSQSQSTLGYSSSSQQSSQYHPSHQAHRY
Sequence of Cyclin-C/Cyclin-dependent kinase 19 (P24863 whole entry, further chain, the tested form may be a part): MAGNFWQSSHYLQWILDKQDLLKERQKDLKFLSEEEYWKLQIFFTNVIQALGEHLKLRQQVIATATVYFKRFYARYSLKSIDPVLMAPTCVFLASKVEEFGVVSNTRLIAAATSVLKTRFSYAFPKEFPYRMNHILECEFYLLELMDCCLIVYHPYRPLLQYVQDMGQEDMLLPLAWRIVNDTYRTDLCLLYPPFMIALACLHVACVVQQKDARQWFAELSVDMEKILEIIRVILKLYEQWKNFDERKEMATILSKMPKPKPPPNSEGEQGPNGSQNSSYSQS

T2 sequence (Q9BWU1 whole entry, the tested form may be a part): as the sequence (Q9BWU1 whole entry, the tested form may be a part) above
Sequence of CDK8/Cyclin C (P49336 whole entry, the tested form may be a part): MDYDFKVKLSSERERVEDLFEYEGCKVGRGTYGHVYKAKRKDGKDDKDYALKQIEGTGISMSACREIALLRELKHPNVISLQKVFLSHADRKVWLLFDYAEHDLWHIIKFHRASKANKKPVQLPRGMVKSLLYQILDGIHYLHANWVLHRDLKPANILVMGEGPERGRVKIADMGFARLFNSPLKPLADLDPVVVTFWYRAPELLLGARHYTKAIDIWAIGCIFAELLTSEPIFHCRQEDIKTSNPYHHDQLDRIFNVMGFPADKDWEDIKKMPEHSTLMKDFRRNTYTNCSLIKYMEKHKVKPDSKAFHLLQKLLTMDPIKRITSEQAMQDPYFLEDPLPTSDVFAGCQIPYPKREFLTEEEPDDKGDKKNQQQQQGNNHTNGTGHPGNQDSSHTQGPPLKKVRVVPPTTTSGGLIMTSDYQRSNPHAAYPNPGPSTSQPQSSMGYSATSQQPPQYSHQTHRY
Sequence of CDK8/Cyclin C (P24863 whole entry, further chain, the tested form may be a part): as the sequence (P24863 whole entry, further chain, the tested form may be a part) above
Sequence of Cyclin-dependent kinase 8 (P49336 whole entry, the tested form may be a part): as the sequence (P49336 whole entry, the tested form may be a part) above
Sequence of Rho-associated protein kinase 1 (Q13464 whole entry, the tested form may be a part): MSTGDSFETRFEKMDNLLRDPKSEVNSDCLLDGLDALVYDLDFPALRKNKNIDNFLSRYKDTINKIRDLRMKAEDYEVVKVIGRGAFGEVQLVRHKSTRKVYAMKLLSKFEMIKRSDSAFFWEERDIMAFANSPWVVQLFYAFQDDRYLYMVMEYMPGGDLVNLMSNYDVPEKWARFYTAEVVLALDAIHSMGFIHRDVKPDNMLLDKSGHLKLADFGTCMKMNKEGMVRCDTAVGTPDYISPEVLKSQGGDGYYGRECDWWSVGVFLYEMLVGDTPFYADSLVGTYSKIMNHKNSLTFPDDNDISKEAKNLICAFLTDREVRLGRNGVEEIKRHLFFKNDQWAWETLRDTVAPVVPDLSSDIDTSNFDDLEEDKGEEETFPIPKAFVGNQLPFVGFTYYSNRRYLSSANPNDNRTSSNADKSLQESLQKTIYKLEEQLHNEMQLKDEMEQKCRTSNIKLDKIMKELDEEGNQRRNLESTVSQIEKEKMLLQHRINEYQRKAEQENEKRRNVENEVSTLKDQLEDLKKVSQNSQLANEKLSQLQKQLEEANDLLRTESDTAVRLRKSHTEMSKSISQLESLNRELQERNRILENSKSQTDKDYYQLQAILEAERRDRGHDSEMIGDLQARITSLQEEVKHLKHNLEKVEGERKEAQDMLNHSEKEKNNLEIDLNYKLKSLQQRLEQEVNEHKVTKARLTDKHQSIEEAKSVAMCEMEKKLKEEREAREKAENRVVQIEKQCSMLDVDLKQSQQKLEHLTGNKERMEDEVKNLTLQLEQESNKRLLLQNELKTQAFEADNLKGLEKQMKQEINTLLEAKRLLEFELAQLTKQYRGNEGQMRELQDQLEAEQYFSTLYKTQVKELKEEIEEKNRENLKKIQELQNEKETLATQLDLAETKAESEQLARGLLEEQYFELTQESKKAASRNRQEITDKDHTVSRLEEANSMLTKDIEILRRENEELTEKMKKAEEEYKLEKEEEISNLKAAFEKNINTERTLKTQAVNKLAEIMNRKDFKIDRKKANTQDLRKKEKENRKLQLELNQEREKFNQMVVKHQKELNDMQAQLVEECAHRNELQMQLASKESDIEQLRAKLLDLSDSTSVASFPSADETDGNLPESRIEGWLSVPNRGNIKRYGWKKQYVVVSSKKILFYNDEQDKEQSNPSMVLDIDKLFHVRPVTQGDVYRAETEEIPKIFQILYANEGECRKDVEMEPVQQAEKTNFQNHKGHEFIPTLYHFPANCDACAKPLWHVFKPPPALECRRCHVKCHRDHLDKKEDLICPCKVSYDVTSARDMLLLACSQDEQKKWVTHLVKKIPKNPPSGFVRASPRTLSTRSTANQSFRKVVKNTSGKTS
Sequence of Rho-associated protein kinase 2 (O75116 whole entry, the tested form may be a part): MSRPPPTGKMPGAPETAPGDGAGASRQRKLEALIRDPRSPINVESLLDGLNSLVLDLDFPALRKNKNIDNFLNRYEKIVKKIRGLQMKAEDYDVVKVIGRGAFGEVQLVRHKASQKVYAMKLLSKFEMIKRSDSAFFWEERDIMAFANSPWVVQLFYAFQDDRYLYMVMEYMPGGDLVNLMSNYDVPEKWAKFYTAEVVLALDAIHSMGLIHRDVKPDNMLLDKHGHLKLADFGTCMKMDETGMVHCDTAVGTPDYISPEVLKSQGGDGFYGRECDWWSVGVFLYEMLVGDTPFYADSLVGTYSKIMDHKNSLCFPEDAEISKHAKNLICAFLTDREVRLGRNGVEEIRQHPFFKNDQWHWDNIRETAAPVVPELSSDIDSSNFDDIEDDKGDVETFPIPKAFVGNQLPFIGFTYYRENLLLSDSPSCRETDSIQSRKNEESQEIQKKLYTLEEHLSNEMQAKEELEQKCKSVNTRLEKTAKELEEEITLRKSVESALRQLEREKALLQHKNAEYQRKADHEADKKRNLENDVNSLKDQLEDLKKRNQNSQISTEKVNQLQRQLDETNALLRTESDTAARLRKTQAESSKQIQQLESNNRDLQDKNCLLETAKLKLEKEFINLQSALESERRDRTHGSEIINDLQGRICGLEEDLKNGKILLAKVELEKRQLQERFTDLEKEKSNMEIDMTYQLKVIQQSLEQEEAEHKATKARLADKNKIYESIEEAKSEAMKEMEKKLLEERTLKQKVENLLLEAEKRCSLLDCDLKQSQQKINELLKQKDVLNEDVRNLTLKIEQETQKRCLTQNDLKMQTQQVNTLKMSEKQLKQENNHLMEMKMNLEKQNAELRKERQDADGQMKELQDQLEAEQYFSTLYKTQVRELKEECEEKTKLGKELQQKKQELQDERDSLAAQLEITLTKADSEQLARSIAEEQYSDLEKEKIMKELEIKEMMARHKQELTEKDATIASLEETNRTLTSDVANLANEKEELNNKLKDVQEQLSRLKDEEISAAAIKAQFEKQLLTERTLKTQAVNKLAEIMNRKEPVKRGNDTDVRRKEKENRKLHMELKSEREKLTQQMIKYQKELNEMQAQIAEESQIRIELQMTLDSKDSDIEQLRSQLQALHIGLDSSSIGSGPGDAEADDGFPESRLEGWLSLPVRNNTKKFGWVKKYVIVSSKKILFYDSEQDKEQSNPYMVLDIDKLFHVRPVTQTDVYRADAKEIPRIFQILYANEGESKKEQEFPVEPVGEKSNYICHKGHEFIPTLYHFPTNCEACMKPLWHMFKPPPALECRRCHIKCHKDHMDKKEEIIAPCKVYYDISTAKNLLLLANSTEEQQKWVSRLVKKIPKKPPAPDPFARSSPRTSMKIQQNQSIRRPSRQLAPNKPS

Compound: CN(C)[C@H]1C[C@@]23CC[C@@]4(O2)C(=CC[C@]2(C)[C@@H](c5ccc6ccncc6c5)CC[C@H]24)C=C3[C@@H](O)[C@@H]1O
Ratio IC50 [3]: 3300
Kd [4]: 0.01 µM
Kd [5]: 0.25 µM
Kd [6]: 0.22 µM
Kd [7]: 3.5 µM
IC50 (NHDF): 6 µM
Kd [8]: 0.017 µM
IC50 (HUVEC): 0.0018 µM

Compound: Cc1ccc(NC(=O)Nc2nnc(-c3cccc(F)c3)s2)cc1C
GI50 (COLO 205): 6.43 to 11.3 µM
GI50 (HCT-116): 6.43 to 11.3 µM
IC50 (CDK8/Cyclin C): 0.047 µM
GI50 (HT-29): 6.43 to 11.3 µM

Compound: Fc1ccc2nccc(Nc3ccccc3F)c2c1
GI50 (COLO 205): 6.43 to 11.3 µM
GI50 (HCT-116): 6.43 to 11.3 µM
IC50 (CDK8/Cyclin C): 0.386 µM
GI50 (HT-29): 6.43 to 11.3 µM

Compound: N#Cc1ccc2ncnc(NCCc3ccccc3)c2c1
Kd [4]: 0.31 µM
Kd [8]: 0.83 µM

Compound: CC1CCc2nc(N)c(C#N)c(-c3cccnc3)c2C1 (stereo unspecified)
IC50 [9]: > 30 µM

Now from value to compound:

inhibition [1]: 99%
inhibition [2]: 99%
Compound: Cc1ncccc1Oc1sc(C(N)=O)c2c1-c1c(cnn1C)CC2

inhibition [2]: 94%
Compound: O=C(/C=C/c1cnccc1-c1ccc(F)cc1)Nc1ccc(CCc2nnco2)cc1

GI50 (COLO 205): 6.43 to 11.3 µM
GI50 (HCT-116): 6.43 to 11.3 µM
IC50 (CDK8/Cyclin C): 0.018 µM
GI50 (HT-29): 6.43 to 11.3 µM
Compound: Cc1ccc(NC(=O)Nc2ccc(Cc3ccncc3)cc2)cc1C
